Structures can show the parent of a compound that is named as a salt. Bounds are passed on as bounds.

The first assay has as its target T1, human MGL from HeLa cells (Homo sapiens, UniProt Q99685).
T1 construct: combining endogenously expressed MGL from HeLa cells with test compounds; endogenous in cells; host or cells: HeLa cells / cell homogenates
T1 sequence (Q99685 1-303): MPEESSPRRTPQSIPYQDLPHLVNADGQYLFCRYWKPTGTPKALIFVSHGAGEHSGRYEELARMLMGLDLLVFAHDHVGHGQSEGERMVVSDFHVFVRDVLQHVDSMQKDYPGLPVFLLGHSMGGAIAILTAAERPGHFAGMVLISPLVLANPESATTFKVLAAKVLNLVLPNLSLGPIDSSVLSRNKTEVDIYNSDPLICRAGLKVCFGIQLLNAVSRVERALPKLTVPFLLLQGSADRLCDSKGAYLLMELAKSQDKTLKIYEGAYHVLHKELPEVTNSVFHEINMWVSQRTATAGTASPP
In words: In vitro MGL activity assay: [glycerol-1,3-3H]-oleyl glycerol cleavage by MGL from HeLa cells. It counts as biochemical. The conditions noted are these: 300 nM [Glycerol-1,3-3H]-oleyl glycerol, one hour. An excerpt:
MGL is the predominant hydrolase in HeLa cells/cell homogenates.
Molecule `Cc1nc2ccc(C(=O)N3CCc4c(nn(C)c4-c4cc(F)c(F)c(F)c4)[C@@H]3C)cc2nc1C` [Example 476, (2,3-Dimethylquinoxalin-6-yl)-[(7S)-2,7-dimethyl-3-(3,4,5-trifluorophenyl)-5,7-dihydro-4H-pyrazolo[3,4-c]pyridin-6-yl]methanone] displayed an IC50 of 25.4 nM.

`C[C@H]1c2nn(C)c(-c3cccc4occc34)c2CCN1C(=O)c1ccc2ncccc2c1` [Example 535, [(7S)-3-(Benzofuran-4-yl)-2,7-dimethyl-5,7-dihydro-4H-pyrazolo[3,4-c]pyridin-6-yl]-(6-quinolyl)methanone] returned a half-inhibitory concentration (IC50) of 18.1 nM.

In turn, `C[C@H]1c2nn(C)c(-c3cc(F)c(F)c(F)c3)c2CCN1C(=O)c1cnn2c1CCC2` [Example 551, 5,6-Dihydro-4H-pyrrolo[1,2-b]pyrazol-3-yl-[(7S)-2,7-dimethyl-3-(3,4,5-trifluorophenyl)-5,7-dihydro-4H-pyrazolo[3,4-c]pyridin-6-yl]methanone] had a 50% inhibitory concentration (IC50) of 122 nM.

In the case of `C[C@H]1c2nn(C)c(-c3cc(F)c(F)c(F)c3)c2CCN1C(=O)c1nnn2ccccc12` [Example 441, [(7S)-2,7-Dimethyl-3-(3,4,5-trifluorophenyl)-5,7-dihydro-4H-pyrazolo[3,4-c]pyridin-6-yl]-(triazolo[1,5-a]pyridin-3-yl)methanone], the IC50 was determined as 24.1 nM.

For `C[C@H]1c2nn(C)c(-c3cc(F)c(F)c(F)c3)c2CCN1C(=O)c1ccc2nncn2c1` [Example 439, [(7S)-2,7-Dimethyl-3-(3,4,5-trifluorophenyl)-5,7-dihydro-4H-pyrazolo[3,4-c]pyridin-6-yl]-([1,2,4]triazolo[4,3-a]pyridin-6-yl)methanone], the IC50 worked out at 9270 nM.

For the molecule `C[C@H]1c2nn(C)c(-c3cc(F)c(F)c(F)c3)c2CCN1C(=O)c1nc(C2CC2)n2ccccc12` [Example 421, (3-Cyclopropylimidazo[1,5-a]pyridin-1-yl)-[(7S)-2,7-dimethyl-3-(3,4,5-trifluorophenyl)-5,7-dihydro-4H-pyrazolo[3,4-c]pyridin-6-yl]methanone], the IC50 was determined as 6.66 nM.

Regarding `C[C@H]1c2nn(C)c(-c3cc(F)c(F)c(F)c3)c2CCN1C(=O)c1n[nH]c2ncc(F)cc12` [Example 428, [(7S)-2,7-Dimethyl-3-(3,4,5-trifluorophenyl)-5,7-dihydro-4H-pyrazolo[3,4-c]pyridin-6-yl]-(5-fluoro-1H-pyrazolo[3,4-b]pyridin-3-yl)methanone.TFA salt], the IC50 came out at 23 nM.

`Cc1cc2nc(C)c(C(=O)N3CCc4c(nn(C)c4-c4cc(F)c(F)c(F)c4)[C@@H]3C)n2cc1F` [Example 409, [(7S)-2,7-Dimethyl-3-(3,4,5-trifluorophenyl)-5,7-dihydro-4H-pyrazolo[3,4-c]pyridin-6-yl]-(6-fluoro-2,7-dimethyl-imidazo[1,2-a]pyridin-3-yl)methanone] showed a 50% inhibitory concentration (IC50) of 76.6 nM.

On to `Cc1ccc2c(C(=O)N3CCc4c(nn(C)c4-c4cc(F)c(F)c(F)c4)[C@@H]3C)nccc2n1` [Example 487, [(7S)-2,7-Dimethyl-3-(3,4,5-trifluorophenyl)-5,7-dihydro-4H-pyrazolo[3,4-c]pyridin-6-yl]-(2-methyl-1,6-naphthyridin-5-yl)methanone], for which inhibition was half-maximal at 35.3 nM (IC50).

On to `C[C@H]1c2nn(C)c(-c3cc(F)c(F)c(F)c3)c2CCN1C(=O)c1cccc2[nH]c(=O)oc12` [Example 587, 7-[(7S)-2,7-Dimethyl-3-(3,4,5-trifluorophenyl)-5,7-dihydro-4H-pyrazolo[3,4-c]pyridine-6-carbonyl]-3H-1,3-benzoxazol-2-one], for which inhibition was half-maximal at 13.4 nM (IC50).

On to `Cc1ncc2ccc(C(=O)N3CCc4c(nn(C)c4-c4cc(F)c(F)c(F)c4)[C@@H]3C)cn12` [Example 418, [(7S)-2,7-Dimethyl-3-(3,4,5-trifluorophenyl)-5,7-dihydro-4H-pyrazolo[3,4-c]pyridin-6-yl]-(3-methylimidazo[1,5-a]pyridin-6-yl)methanone], for which the IC50 stood at 14.6 nM.

`Cc1nn(C)cc1C(=O)N1CCc2c(nn(C)c2-c2cc(F)c(F)c(F)c2)[C@@H]1C` [Example 343, (1,3-Dimethylpyrazol-4-yl)-[(7S)-2,7-dimethyl-3-(3,4,5-trifluorophenyl)-5,7-dihydro-4H-pyrazolo[3,4-c]pyridin-6-yl]methanone] returned a concentration for half-maximal inhibition (IC50) of 308 nM.

On to `Cc1cc(C)n2ccc(C(=O)N3CCc4c(nn(C)c4-c4cc(F)c(F)c(F)c4)[C@@H]3C)c2n1` [Example 417, (2,4-Dimethylpyrrolo[1,2-a]pyrimidin-8-yl)-[(7S)-2,7-dimethyl-3-(3,4,5-trifluorophenyl)-5,7-dihydro-4H-pyrazolo[3,4-c]pyridin-6-yl] methanone], for which the IC50 was 126 nM.

On to `C[C@H]1c2nn(C)c(-c3cc(F)c(F)c(F)c3)c2CCN1C(=O)c1ccnc2ncccc12` [Example 491, [(7S)-2,7-Dimethyl-3-(3,4,5-trifluorophenyl)-5,7-dihydro-4H-pyrazolo[3,4-c]pyridin-6-yl]-(1,8-naphthyridin-4-yl)methanone], for which 141 nM corresponded to half-maximal inhibition (IC50).

`C[C@H]1c2nn(C)c(-c3cc(F)cc(OC(F)F)c3)c2CCN1C(=O)c1ccc2c(c1)OCCC2` [Example 596, Chroman-7-yl-[(7S)-3-[3-(difluoromethoxy)-5-fluoro-phenyl]-2,7-dimethyl-5,7-dihydro-4H-pyrazolo[3,4-c]pyridin-6-yl]methanone] gave an IC50 of 28.7 nM.

`C[C@H]1c2nn(C)c(-c3cc(F)c(F)c(F)c3)c2CCN1C(=O)c1ccnc2cccnc12` [Example 485, [(7S)-2,7-Dimethyl-3-(3,4,5-trifluorophenyl)-5,7-dihydro-4H-pyrazolo[3,4-c]pyridin-6-yl]-(1,5-naphthyridin-4-yl)methanone] had an IC50 of 33.2 nM.

The molecule `C[C@H]1c2nn(C)c(-c3cc(F)c(F)c(F)c3)c2CCN1C(=O)c1ccc2c(c1)CCOC2` [Example 578, [(7S)-2,7-Dimethyl-3-(3,4,5-trifluorophenyl)-5,7-dihydro-4H-pyrazolo[3,4-c]pyridin-6-yl]-isochroman-6-yl-methanone] registered an IC50 of 27.4 nM.

In the case of `COc1cc(F)cc(-c2c3c(nn2C)[C@H](C)N(C(=O)c2ccnc(OC)c2C)CC3)c1` [Example 613, [(7S)-3-(3-Fluoro-5-methoxy-phenyl)-2,7-dimethyl-5,7-dihydro-4H-pyrazolo[3,4-c]pyridin-6-yl]-(2-methoxy-3-methyl-4-pyridyl)methanone], the midpoint of inhibition, the IC50, lay at 27.8 nM.

The same assay, now with this note: 300 nM [Glycerol-1,3-3H]-oleyl glycerol, one hour incubation.
Consider `COc1cccc(C(=O)N2CCc3c(nn(C)c3-c3ccccc3)C2)c1Cl` [Example 13, (2-Chloro-3-methoxyphenyl)(2-methyl-3-phenyl-2,4,5,7-tetrahydro-6H-pyrazolo[3,4-c]pyridin-6-yl)methanone], for which the IC50 is 16.8 nM.

With `C[C@H]1c2nn(C)c(-c3cc(F)c(F)c(F)c3)c2CCN1C(=O)c1c(F)cccc1-n1cncn1` [Example 280, [(7S)-2,7-Dimethyl-3-(3,4,5-trifluorophenyl)-5,7-dihydro-4H-pyrazolo[3,4-c]pyridin-6-yl]-[2-fluoro-6-(1,2,4-triazol-1-yl)phenyl]methanone], the IC50 was 7.77 nM.

`COc1nccc(C(=O)N2CCc3c(nn(C)c3-c3cc(F)c(F)c(F)c3)[C@@H]2C)c1Cl` [Example 316, (3-Chloro-2-methoxy-4-pyridyl)-[(7S)-2,7-dimethyl-3-(3,4,5-trifluorophenyl)-5,7-dihydro-4H-pyrazolo[3,4-c]pyridin-6-yl]methanone] registered an IC50 of 17.2 nM.

The molecule `C[C@H]1c2nn(C)c(-c3cc(F)c(F)c(F)c3)c2CCN1C(=O)c1cccc2cc[nH]c12` [Example 205, (S)-(2,7-Dimethyl-3-(3,4,5-trifluorophenyl)-2,4,5,7-tetrahydro-6H-pyrazolo[3,4-c]pyridin-6-yl)(1H-indol-7-yl)methanone] showed an IC50 of 33.3 nM.

Take `C[C@@H]1c2nn(C)c(-c3cccc(Cl)c3)c2CCN1C(=O)c1cnc2ccoc2c1` (single isomer, unassigned) [Example 127]: the IC50 was more than 10000 nM.

In turn, `Cn1nc2c(c1-c1ccccc1)CCN(C(=O)c1cccc3cnccc13)C2` [Example 92, Isoquinolin-5-yl(2-methyl-3-phenyl-2,4,5,7-tetrahydro-6H-pyrazolo[3,4-c]pyridin-6-yl)methanone] had an IC50 of 108 nM.

For the molecule `C[C@H]1c2nn(C)c(-c3ccc(OC(F)F)c(F)c3)c2CCN1C(=O)c1ccc2nccnc2c1` [Example 189, (S)-(3-(4-(Difluoromethoxy)-3-fluorophenyl)-2,7-dimethyl-2,4,5,7-tetrahydro-6H-pyrazolo[3,4-c]pyridin-6-yl)(quinoxalin-6-yl)methanone], the 50% inhibitory concentration (IC50) is 102 nM.

Consider `Cn1nc2c(c1-c1ccccc1)CCN(C(=O)c1ccc3[nH]cnc3c1)C2` [Example 71, (1H-Benzo[d]imidazol-5-yl)(2-methyl-3-phenyl-2,4,5,7-tetrahydro-6H-pyrazolo[3,4-c]pyridin-6-yl)methanone], for which the IC50 came out at 1010 nM.

`Cc1cccc(C(=O)N2CCc3c(nn(C)c3-c3ccccc3)C2)c1N` [Example 17, (2-Amino-3-methylphenyl)(2-methyl-3-phenyl-2,4,5,7-tetrahydro-6H-pyrazolo[3,4-c]pyridin-6-yl)methanone] showed a concentration for half-maximal inhibition (IC50) of 1400 nM.

In the case of `C[C@H]1c2nn(C)c(-c3cccc(Cl)c3)c2CCN1C(=O)c1cc(Br)c2nccnc2c1` [Example 135, (S)-(8-Bromoquinoxalin-6-yl)(3-(3-chlorophenyl)-2,7-dimethyl-2,4,5,7-tetrahydro-6H-pyrazolo[3,4-c]pyridin-6-yl)methanone], the IC50 amounted to 10.6 nM.

The values above are taken from US11820766B2, “Monoacylglycerol lipase modulators” (Janssen Pharmaceutica NV, priority 2018, dated 2023).
